{
  "source": "patent US10488416B2",
  "about": "“Targeting breast cancer therapy based on stromal subtypes and CD146 composition” (The Regents of the University of Colorado, a Body Corporate, priority 2014, dated 2019)",
  "molecules": {"B1": {"name": "HBEGF: HBEGF added to CD146pos CAF conditioned media in the invasion assay (protein, UniProt Q99075 63-148, looked up)", "Heparin-binding EGF-like …": "DLQEADLDLLRVTLSSKPQALATPNKEEHGKRKKKGKGLGKKRDPCLRKYKDFCIHGECKYVKELRAPSCICHPGYHGERCHGLSL"}},
  "tested_on": "MCF7 cells",
  "experiment": "MCF7 invasion scratch wound assay through Matrigel in CAF conditioned media",
  "type": "cell-based, human",
  "conditions": "for effect on CD146neg CAF induced invasion: MCF7 in CD146neg CAF conditioned media",
  "data": [
    {"molecule": "COc1cc2ncnc(Nc3ccc(F)c(Cl)c3)c2cc1OCCCN1CCOCC1", "note": "[gefitinib]", "values": [
      {"measurement": "effect on CD146neg CAF induced invasion", "result": "successfully blocked"},
      {"measurement": "effect on CD146neg CAF induced invasion", "setting": "listed as gefitibib", "result": "inhibited"}
    ]},
    {"molecule": "B1", "values": [
      {"measurement": "effect on invasion", "setting": "MCF7 in CD146pos CAF conditioned media", "result": "stimulated"}
    ]}
  ]
}
